Data set [1] in a line: Selectivity index, ratio of CC50 for mouse RAW264.7 cells to IC50 for Leishmania amazonensis amastigotes infected in mouse RAW264.7 cells. The format is toxicity, cell-based. To be noted: read-out: Ratio CC50/IC50.
Data set [2] can be described thus: Selectivity index, ratio of CC50 for mouse RAW264.7 cells to IC50 for Leishmania infantum amastigotes infected in mouse RAW264.7 cells. The format is toxicity, cell-based. To be noted: read-out: Ratio CC50/IC50.
Data set [3] is described as follows: Selectivity index, ratio of CC50 for mouse RAW264.7 cells to IC50 for Leishmania infantum promastigotes infected in mouse RAW264.7 cells. To be noted: read-out: Ratio CC50/IC50. The format is toxicity, cell-based.
The subject of data set [4] is Leishmania amazonensis. Nature of the data set: Antiparasitic activity against Leishmania amazonensis promastigotes infected in mouse RAW264.7 cells measured after 48 hrs. To be noted: for IC50: RAW264.7, 48 h. The format is functional, organism-based.
The nature of data set [5]: Selectivity index, ratio of CC50 for mouse RAW264.7 cells to IC50 for Leishmania amazonensis promastigotes infected in mouse RAW264.7 cells. The data set is classed as toxicity, cell-based. To be noted: read-out: Ratio CC50/IC50.
Data set [6] has as its system Leishmania infantum. Nature of the data set: Antiparasitic activity against Leishmania infantum amastigotes infected in mouse RAW264.7 cells measured after 48 hrs. The format is functional, organism-based. To be noted: for IC50: RAW264.7, 48 h.
Data set [7] in a line: Cytotoxicity against mouse RAW264.7 cells measured after 48 hrs. The format is toxicity, cell-based.
For data set [8], the system named is Leishmania infantum. Kind of data set: Antiparasitic activity against Leishmania infantum promastigotes infected in mouse RAW264.7 cells measured after 48 hrs. The data set is classed as functional, organism-based. To be noted: for IC50: RAW264.7, 48 h.
In data set [9] the test system is Leishmania amazonensis. Nature of the data set: Antiparasitic activity against Leishmania amazonensis amastigotes infected in mouse RAW264.7 cells measured after 48 hrs. To be noted: for IC50: RAW264.7, 48 h. The data set is classed as functional, organism-based.
Data set [10] relates to Trypanosoma cruzi. Kind of data set: Antitrypanosomal activity against bloodstream trypomastigote form of Trypanosoma cruzi Y measured after 24 hrs. The format is functional, organism-based.
Data set [11] is described as follows: Selectivity index, ratio of LC50 for mouse peritoneal macrophage cells to IC50 for bloodstream trypomastigote form of Trypanosoma cruzi Y. The format is toxicity. To be noted: peritoneal macrophages, read-out: Ratio LC50/IC50.
The nature of data set [12]: Cytotoxicity against mouse L929 cells assessed as inhibition of cell viability measured after 120 hrs. The data set is classed as toxicity, cell-based.
For data set [13], the system named is Trypanosoma cruzi. Nature of the data set: Potency index, ratio of benznidazole IC50 to test compound IC50 for antitrypanosomal activity against Trypanosoma cruzi Tulahuen expressing beta-galactosidase gene infected in mouse L929 cells measured after 120 hrs. The data set is classed as functional.
In data set [14] the target is Cruzipain (Trypanosoma cruzi) (UniProt P25779). Kind of data set: Inhibition of Trypanosoma cruzi cruzain at 100 uM relative to control.
Cruzipain (Trypanosoma cruzi), sequence (P25779 123-467 limits assumed): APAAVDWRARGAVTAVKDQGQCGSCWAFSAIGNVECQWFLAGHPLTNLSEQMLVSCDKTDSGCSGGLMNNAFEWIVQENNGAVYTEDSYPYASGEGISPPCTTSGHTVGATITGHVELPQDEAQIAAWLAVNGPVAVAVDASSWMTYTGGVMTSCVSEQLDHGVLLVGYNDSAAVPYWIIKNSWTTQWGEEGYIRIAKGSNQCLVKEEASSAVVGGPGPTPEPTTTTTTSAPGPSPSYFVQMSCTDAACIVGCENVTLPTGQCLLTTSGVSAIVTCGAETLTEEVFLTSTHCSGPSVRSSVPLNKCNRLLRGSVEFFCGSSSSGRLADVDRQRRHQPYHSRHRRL
The test system of data set [15] is Trypanosoma cruzi. Nature of the data set: Antitrypanosomal activity against tissue-culture derived trypomastigote form of Trypanosoma cruzi Y measured after 120 hrs. The format is functional.
The nature of data set [16]: Cytotoxicity against non-infected mouse peritoneal macrophage cells measured after 24 hrs. The format is toxicity, cell-based. To be noted: non-infected peritoneal macrophages, read-out: LC50.
Data set [17] is described as follows: Selectivity index, ratio of CC50 for mouse L929 cells to IC50 for Trypanosoma cruzi Tulahuen expressing beta-galactosidase gene infected in mouse L929 cells. The data set is classed as toxicity, cell-based. To be noted: read-out: Ratio CC50/IC50.
In data set [18] the test system is Trypanosoma cruzi. Kind of data set: Antitrypanosomal activity against Trypanosoma cruzi Tulahuen expressing beta-galactosidase gene infected in mouse L929 cells measured after 120 hrs. The format is functional, organism-based. To be noted: L929, 120 h.
The subject of data set [19] is Leishmania infantum. Kind of data set: Antiparasitic activity against Leishmania infantum. The format is functional, organism-based.

Activity calls are given as the source filed them. The rule behind the calls is not given here.

Take `CCCCCCCCCCCCCCCCOP(=O)([O-])OCC[N+](C)(C)C` [MILTEFOSINE]: the selectivity ratio in [1] amounted to 13.1; in [2], 12.7; in [3], 5.6; in [5] it was 4.2. Moreover, the IC50 stood at 5.2 µM in data set [4], 1.72 µM in data set [6], 3.92 µM in data set [8] and 1.67 µM in data set [9]. The same compound showed a CC50 at 48 h in [7] of 21.8 µM.
Consider `O=C(N/N=C/c1ccc([N+](=O)[O-])o1)c1nc2ccccc2[nH]1`, for which the IC50 stood at 304 µM in [10]; 61.8 µM in data set [6]; 28.7 µM in [8]; 0.033 µM in [18]; 18.4 µM in [9]. The selectivity ratio is 1.4 in [1]; 0.4 in data set [2]; 0.9 in data set [3]; above 1.6 in data set [11]; 7680 in [17]. Besides, the CC50 at 120 h in data set [12] was 257 µM. The outcome in [4] was inactive. The “Ratio IC50” value in data set [13] is given as 46. The compound further showed an inhibition in data set [14] of 18%. In data set [15], this compound yielded an LC50 of 15 µM. In addition, the CC50 at 24 h in data set [16] is above 500 µM. In data set [7], this compound registered a CC50 at 48 h of 25.7 µM.
For the compound `O=C(N/N=C/c1ccccc1O)c1nc2ccccc2[nH]1`, the half-inhibitory concentration (IC50) is above 500 µM in data set [10]; 21.8 µM in data set [6]; 23.9 µM in data set [8]; 3.6 µM in data set [18]; 104 µM in data set [9]. In addition, the selectivity ratio was 0.3 in [1], 1.3 in [2], 1.2 in [3] and 14.7 in data set [17]. Further, the CC50 at 120 h in data set [12] turned out to be 52.4 µM. Moreover, the outcome in [4] was inactive. In data set [14], this compound registered an inhibition of 4%. The compound further displayed an LC50 in [15] of 19.9 µM. Besides, the CC50 at 48 h in data set [7] was determined as 29.2 µM.
In the case of `O=C(Cn1ccnc1[N+](=O)[O-])NCc1ccccc1` [BENZNIDAZOLE], the IC50 came to 8.8 µM in data set [10] and 1.52 µM in data set [18]. Besides, the selectivity ratio in [11] is 113; in data set [17], 1390. Further, the CC50 at 120 h in data set [12] stood at 2110 µM. The same compound registered an LC50 in [15] of 10.8 µM. For the same compound, the CC50 at 24 h in data set [16] is above 1000 µM.
`O=C(N/N=C/c1ccc(O)c(O)c1)c1nc2ccccc2[nH]1`: the IC50 in [10] is 144 µM; in [4], 170 µM; in data set [6] it was 37.8 µM; in [8] it was 90.8 µM; in data set [18], 72.9 µM; in data set [9], 62.1 µM. Further, the selectivity ratio in data set [1] worked out at 0.2; in data set [2], 0.4; in [3], 0.2; in [11], 0.9; in data set [5] it was 0.09; in [17], 1.4. Besides, in data set [12], the CC50 at 120 h came to 102 µM. The inhibition in [14] amounted to 61%. In data set [15], this compound displayed an LC50 of 98.2 µM. For the same compound, in data set [16], the CC50 at 24 h was determined as 128 µM. In [7], this compound had a CC50 at 48 h of 14.8 µM.
`CCCn1c(NC(=O)Cc2ccc(Cl)cc2)nc2ccccc21`: in data set [19], the IC50 is 12 µM.
As for `O=C(N/N=C/c1ccc(O)cc1)c1nc2ccccc2[nH]1`, the IC50 in data set [10] came to 89.7 µM; in data set [6], 97.4 µM; in data set [18] it was 68.9 µM. Further, the values for the selectivity ratio in data set [2], in data set [11] and in data set [17] were 0.9, above 5.6 and 2.5, respectively. For the same compound, in data set [12], the CC50 at 120 h worked out at 170 µM. In addition, the result in data set [4], in data set [8] and in data set [9] was inactive. The inhibition in [14] was determined as 65%. For the same compound, the 50% lethal concentration (LC50) in [15] stood at 233 µM. The CC50 at 24 h in [16] is above 500 µM. Moreover, the CC50 at 48 h in data set [7] was 88.8 µM.
On to `COc1ccc(/C=N/NC(=O)c2nc3ccccc3[nH]2)cc1OC`, for which the IC50 worked out at 160 µM in data set [10] and 173 µM in [18]. Further, the selectivity ratio in [11] was above 3.1; in data set [17], 1.7. In addition, in [12], the CC50 at 120 h is 293 µM. For the same compound, the outcome in data set [4], in data set [6], in data set [8] and in data set [9] was inactive. Further, the inhibition in data set [14] amounted to 35%. Also, in [16], the CC50 at 24 h is above 500 µM. Also, the CC50 at 48 h in [7] came out at 53.6 µM.
Consider `COc1ccc(/C=N/NC(=O)c2nc3ccccc3[nH]2)cc1O`, for which the IC50 is 123 µM in data set [10]; 52.5 µM in data set [6]; 191 µM in data set [8]; 24.8 µM in data set [18]; 136 µM in data set [9]. In addition, the selectivity ratio was found to be 0.7 in data set [1]; 1.7 in data set [2]; 0.5 in [3]; 1 in [11]; 6.2 in [17]. Also, the CC50 at 120 h in [12] turned out to be 153 µM. In data set [4], the result was inactive. In [14], this compound showed an inhibition of 58%. In data set [15], this compound displayed an LC50 of 203 µM. The CC50 at 24 h in data set [16] amounted to 120 µM. In addition, the CC50 at 48 h in data set [7] is 88.9 µM.

The term IC50 denotes the concentration that inhibits the measured activity by half. As usually defined, the inhibition is the change of the read-out against control, counted positive when it falls. Low values mean a weak effect, high ones a strong effect. As a reminder, the LC50 is the concentration lethal to half of the exposed cells or organisms. A higher LC50 goes with a less lethal substance.

For the origin of these results see ChEMBL document CHEMBL5576098, “Synthesis and activity of benzimidazole N-Acylhydrazones against Trypanosoma cruzi, Leishmania amazonensis and Leishmania infantum” (Bioorg Med Chem Lett, 2024).
